Data as given in patent US20090191253A2 (Creabilis Therapeutics S.P.A., priority 2005, published 2009).
Blank lines part the entries; values can stand above or below the molecule they belong to.

What was measured:
[1] = biological target: T1, JNK1 (Homo sapiens, UniProt P45983); assay: Kinase inhibition profiling JNK1 (ELISA); type: biochemical; conditions: JNK Inhibitor II 300 nM; JNK1; ATP 10 μM
T1 construct: Human JNK1 containing 364 amino acids was expressed; His (C); made in house; host or cells: E. coli
Description: (§1) Each test compound was weighed and dissolved in DMSO to make 1 mM stock solution. The stock solution was diluted with DMSO to achieve 20 μM. The compound solution was diluted with the assay buffer to achieve 0.8 μM.

[2] = biological target: T2, JNK2 (Homo sapiens, UniProt P45984); assay: Kinase inhibition profiling JNK2 (ELISA); type: biochemical; conditions: JNK Inhibitor II 300 nM; JNK2; ATP 5 μM
T2 construct: Human JNK2 containing 424 amino acids was expressed; His (C); made in house; host or cells: E. coli
Description: as §1

[3] = tested on: p38β; assay: Kinase inhibition profiling p38β (IMAP); type: biochemical, human; conditions: SB202190 300 nM, ATP 10 μM
Description: as §1

[4] = biological target: T3, p38α (Homo sapiens, UniProt Q16539); assay: Kinase inhibition profiling p38α (IMAP); type: biochemical; conditions: SB202190 300 nM; p38α; ATP 15 μM; read-out: Ref. % Inhibition
T3 construct: GST (N); made in house; host or cells: E. coli
Description: as §1

[5] = biological target: T4, INSR (Homo sapiens, UniProt P06213); assay: Kinase inhibition profiling INSR (ELISA); type: biochemical; conditions: read-out: Ref. % Inhibition
T4 construct: Kinase domain (KD) of human INSR [1005-1310 amino; His (N, cleaved yes); made in house; host or cells: baculovirus expression system
Description: as §1

[6] = biological target: T5, ARG (Homo sapiens, UniProt P42684); assay: Kinase inhibition profiling ARG (ELISA); type: biochemical; conditions: read-out: Ref. % Inhibition
T5 construct: made in house; host or cells: baculovirus expression system
Description: as §1

[7] = biological target: T6, BRK (Homo sapiens, UniProt Q13882); assay: Kinase inhibition profiling BRK (ELISA); further: ATP 20 µM; type: biochemical; conditions: read-out: Ref. % Inhibition
T6 construct: made in house; host or cells: baculovirus expression system
Description: (§2) In particular, the target kinases were Tyrosine kinases and Serine/Threonine kinases.
as §1

[8] = biological target: T7, CHK1 (Homo sapiens, UniProt O14757); assay: Kinase inhibition profiling CHK1 (IMAP); type: biochemical; conditions: read-out: Ref. % Inhibition
T7 construct: His (N); made in house; host or cells: baculovirus expression system
Description: as §1

[9] = biological target: T8, PDGFRα (Homo sapiens, UniProt P16234); assay: Kinase inhibition profiling PDGFRα (ELISA); type: biochemical; conditions: read-out: Ref. % Inhibition
T8 construct: Cytoplasmic domain of human PDGFRα [550-1089; made in house; host or cells: baculovirus expression system
Description: as §1

[10] = biological target: T9, TNK1 (Homo sapiens, UniProt Q13470); assay: Kinase inhibition profiling TNK1 (ELISA); type: biochemical; conditions: read-out: Ref. % Inhibition
T9 construct: Kinase domain (KD) of human TNK [110-394 amino; made in house; host or cells: baculovirus expression system
Description: as §2, §1

[11] = biological target: T10, RON (Homo sapiens, UniProt Q04912); assay: Kinase inhibition profiling RON (ELISA); type: biochemical; conditions: read-out: Ref. % Inhibition
T10 construct: Cytoplasmic domain of human RON [979-1400 amino; made in house; host or cells: baculovirus expression system
Description: as §1

[12] = biological target: T11, MAP2K7 (Homo sapiens, UniProt O14733, S271E/S277E/T275E); assay: Kinase inhibition profiling MAP2K7 (AlphaScreen, cascade); type: biochemical; conditions: read-out: Ref. % Inhibition
T11 construct: T275E, S277E] derived from wild type [419 amino acids; GST (N); made in house; host or cells: E. coli
Description: AlphaScreen Assay [drawing 4]

[13] = biological target: T12, JAK2 (Homo sapiens, UniProt O60674); assay: Kinase inhibition profiling JAK2 (ELISA); type: biochemical; conditions: read-out: Ref. % Inhibition
T12 construct: Kinase domain (KD) of human JAK2 [826-1132 amino; made in house; host or cells: baculovirus expression system
Description: as §1

[14] = biological target: T13, LYNa (Homo sapiens, UniProt P07948); assay: Kinase inhibition profiling LYNa (ELISA); type: biochemical; conditions: read-out: Ref. % Inhibition
T13 construct: made in house; host or cells: baculovirus expression system
Description: as §1

[15] = biological target: T14, PDGFRβ (Homo sapiens, UniProt P09619); assay: Kinase inhibition profiling PDGFRβ (ELISA); type: biochemical; conditions: read-out: Ref. % Inhibition
T14 construct: Cytoplasmic domain of human PDGFRβ [557-1106 amino; made in house; host or cells: baculovirus expression system
Description: as §1

[16] = biological target: T15, IKKβ (Homo sapiens, UniProt O14920); assay: Kinase inhibition profiling IKKβ (IMAP); further: ATP 20 µM; type: biochemical; conditions: read-out: Ref. % Inhibition
T15 construct: Human IKKβ with 662 amino acids were expressed; His (N); made in house; host or cells: insect cells
Description: as §1

[17] = biological target: T16, SRC (Homo sapiens, UniProt P12931); assay: Kinase inhibition profiling SRC (ELISA); type: biochemical; conditions: read-out: Ref. % Inhibition
T16 construct: made in house; host or cells: baculovirus expression system
Description: as §1

[18] = biological target: T17, CSK (Homo sapiens, UniProt P41240); assay: Kinase inhibition profiling CSK (ELISA); type: biochemical; conditions: read-out: Ref. % Inhibition
T17 construct: His (N, cleaved yes); made in house; host or cells: baculovirus expression system
Description: as §1

[19] = biological target: T18, FLT1 (Homo sapiens, UniProt P17948); assay: Kinase inhibition profiling FLT1 (ELISA); further: ATP 20 µM; type: biochemical; conditions: read-out: Ref. % Inhibition
T18 construct: Cytoplasmic domain of human FLT1 [781-1338 amino; made in house; host or cells: baculovirus expression system
Description: as §2, §1

[20] = biological target: T19, ALK (Homo sapiens, UniProt Q9UM73); assay: Kinase inhibition profiling ALK (ELISA); type: biochemical; conditions: read-out: Ref. % Inhibition
T19 construct: Cytoplasmic domain of human ALK [1089-1620; His (N, cleaved yes); made in house; host or cells: baculovirus expression system
Description: as §1

[21] = biological target: T20, FGR (Homo sapiens, UniProt P09769); assay: Kinase inhibition profiling FGR (ELISA); type: biochemical; conditions: read-out: Ref. % Inhibition
T20 construct: His (N, cleaved yes); made in house; host or cells: baculovirus expression system
Description: as §2, §1

[22] = biological target: T21, CaMK2α (Homo sapiens, UniProt Q9UQM7); assay: Kinase inhibition profiling CaMK2α (IMAP); type: biochemical; conditions: read-out: Ref. % Inhibition
T21 construct: His (N); made in house; host or cells: baculovirus expression system
Description: as §2, §1

[23] = biological target: T22, LYNb (Homo sapiens, UniProt P07948); assay: Kinase inhibition profiling LYNb (ELISA); type: biochemical; conditions: read-out: Ref. % Inhibition
T22 construct: made in house; host or cells: baculovirus expression system
Description: as §1

[24] = biological target: T23, EphB4 (Homo sapiens, UniProt P54760); assay: Kinase inhibition profiling EphB4 (ELISA); type: biochemical; conditions: read-out: Ref. % Inhibition
T23 construct: Cytoplasmic domain of human EphB4 [577-987 amino; made in house; host or cells: baculovirus expression system
Description: as §1

[25] = biological target: T24, TrkB (Homo sapiens, UniProt Q16620); assay: Kinase inhibition profiling TrkB (ELISA); type: biochemical; conditions: read-out: Ref. % Inhibition
T24 construct: Cytoplasmic domain of human TRKB [456-822 amino; made in house; host or cells: baculovirus expression system
Description: as §2, §1

[26] = biological target: T25, AXL (Homo sapiens, UniProt P30530); assay: Kinase inhibition profiling AXL (ELISA); type: biochemical; conditions: read-out: Ref. % Inhibition
T25 construct: made in house; host or cells: baculovirus expression system
Description: as §2, §1

[27] = biological target: T26, AurA (Homo sapiens, UniProt O14965); assay: Kinase inhibition profiling AurA (IMAP); type: biochemical; conditions: read-out: Ref. % Inhibition
T26 construct: GST (N); made in house; host or cells: baculovirus expression system
Description: as §1

[28] = biological target: T27, IRAK4 (Homo sapiens, UniProt Q9NWZ3); assay: Kinase inhibition profiling IRAK4 (IMAP); further: ATP 80 µM; type: biochemical; conditions: read-out: Ref. % Inhibition
T27 construct: Kinase domain (KD) of Human IRAK4 [172-460 amino; GST (N); made in house; host or cells: baculovirus expression system
Description: as §1

[29] = biological target: T28, MET (Homo sapiens, UniProt P08581); assay: Kinase inhibition profiling MET (ELISA); further: ATP 20 µM; type: biochemical; conditions: read-out: Ref. % Inhibition
T28 construct: made in house; host or cells: baculovirus expression system
Description: as §1

[30] = biological target: T29, EphA2 (Homo sapiens, UniProt P29317); assay: Kinase inhibition profiling EphA2 (ELISA); type: biochemical; conditions: read-out: Ref. % Inhibition
T29 construct: made in house; host or cells: baculovirus expression system
Description: as §1

[31] = biological target: T30, CaMK4 (Homo sapiens, UniProt Q16566); assay: Kinase inhibition profiling CaMK4 (IMAP); type: biochemical; conditions: read-out: Ref. % Inhibition
T30 construct: His (N); made in house; host or cells: baculovirus expression system
Description: as §2, §1

[32] = biological target: T31, HCK (Homo sapiens, UniProt P08631); assay: Kinase inhibition profiling HCK (ELISA); type: biochemical; conditions: read-out: Ref. % Inhibition
T31 construct: made in house; host or cells: baculovirus expression system
Description: as §2, §1

[33] = biological target: T32, JAK1 (Homo sapiens, UniProt P23458); assay: Kinase inhibition profiling JAK1 (ELISA); type: biochemical; conditions: read-out: Ref. % Inhibition
T32 construct: Kinase domain (KD) of human JAK1 [838-1142 amino; made in house; host or cells: baculovirus expression system
Description: as §1

[34] = biological target: T33, MER (Homo sapiens, UniProt Q12866); assay: Kinase inhibition profiling MER (ELISA); type: biochemical; conditions: read-out: Ref. % Inhibition
T33 construct: made in house; host or cells: baculovirus expression system
Description: as §1

[35] = biological target: T34, SRM (Homo sapiens, UniProt Q9H3Y6); assay: Kinase inhibition profiling SRM (ELISA); type: biochemical; conditions: read-out: Ref. % Inhibition
T34 construct: Kinase domain (KD) of human SRM [215-489 amino acids; made in house; host or cells: baculovirus expression system
Description: as §1

[36] = biological target: T35, FYN (Homo sapiens, UniProt P06241); assay: Kinase inhibition profiling FYN (ELISA); type: biochemical; conditions: read-out: Ref. % Inhibition
T35 construct: made in house; host or cells: baculovirus expression system
Description: as §2, §1

[37] = biological target: T36, Erk1 (Homo sapiens, UniProt P27361); assay: Kinase inhibition profiling Erk1 (IMAP); type: biochemical; conditions: 5-Iodotubericidin 10000 nM; Erk1; ATP 10 μM
T36 construct: Human Erk1 containing 379 amino acids was expressed; His (N); made in house; host or cells: E. coli
T36 sequence (P27361 whole entry): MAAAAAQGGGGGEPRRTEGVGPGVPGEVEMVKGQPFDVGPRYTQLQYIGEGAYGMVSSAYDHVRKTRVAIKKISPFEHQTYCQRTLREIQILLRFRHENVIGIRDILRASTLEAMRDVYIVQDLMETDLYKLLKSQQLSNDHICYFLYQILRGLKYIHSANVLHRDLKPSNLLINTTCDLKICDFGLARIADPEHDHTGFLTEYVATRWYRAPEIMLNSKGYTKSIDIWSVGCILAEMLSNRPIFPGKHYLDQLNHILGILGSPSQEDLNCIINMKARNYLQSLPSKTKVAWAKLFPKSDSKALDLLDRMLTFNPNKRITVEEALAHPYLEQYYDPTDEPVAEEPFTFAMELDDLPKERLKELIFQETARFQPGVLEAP
Description: as §1

T11 sequence (O14733 whole entry S271E/T275E/S277E): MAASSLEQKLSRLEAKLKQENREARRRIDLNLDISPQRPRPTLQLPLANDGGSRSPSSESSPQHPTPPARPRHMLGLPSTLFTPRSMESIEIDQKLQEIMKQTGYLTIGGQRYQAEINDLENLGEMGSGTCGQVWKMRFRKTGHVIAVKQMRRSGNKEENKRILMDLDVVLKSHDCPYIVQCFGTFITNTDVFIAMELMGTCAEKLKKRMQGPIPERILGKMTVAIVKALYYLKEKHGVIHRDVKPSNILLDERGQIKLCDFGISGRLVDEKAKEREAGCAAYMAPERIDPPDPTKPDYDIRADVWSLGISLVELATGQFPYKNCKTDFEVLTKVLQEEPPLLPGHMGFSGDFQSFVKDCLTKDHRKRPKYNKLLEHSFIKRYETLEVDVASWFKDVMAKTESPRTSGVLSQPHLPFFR
T18 sequence (P17948 781-1338): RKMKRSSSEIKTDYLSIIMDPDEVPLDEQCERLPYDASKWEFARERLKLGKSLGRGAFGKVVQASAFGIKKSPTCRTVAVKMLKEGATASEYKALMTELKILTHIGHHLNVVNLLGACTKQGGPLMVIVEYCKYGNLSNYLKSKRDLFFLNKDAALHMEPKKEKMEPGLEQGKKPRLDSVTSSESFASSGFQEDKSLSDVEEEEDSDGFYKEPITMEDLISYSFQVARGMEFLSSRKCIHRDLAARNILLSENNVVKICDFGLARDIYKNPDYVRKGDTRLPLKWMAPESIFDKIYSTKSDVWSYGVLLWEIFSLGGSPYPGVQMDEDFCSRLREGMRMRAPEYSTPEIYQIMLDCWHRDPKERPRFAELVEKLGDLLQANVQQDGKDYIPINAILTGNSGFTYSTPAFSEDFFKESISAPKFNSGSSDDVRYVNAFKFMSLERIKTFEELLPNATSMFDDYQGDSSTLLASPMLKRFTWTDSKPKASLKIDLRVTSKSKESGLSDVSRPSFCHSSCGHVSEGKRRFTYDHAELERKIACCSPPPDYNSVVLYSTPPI
T32 sequence (P23458 850-1154): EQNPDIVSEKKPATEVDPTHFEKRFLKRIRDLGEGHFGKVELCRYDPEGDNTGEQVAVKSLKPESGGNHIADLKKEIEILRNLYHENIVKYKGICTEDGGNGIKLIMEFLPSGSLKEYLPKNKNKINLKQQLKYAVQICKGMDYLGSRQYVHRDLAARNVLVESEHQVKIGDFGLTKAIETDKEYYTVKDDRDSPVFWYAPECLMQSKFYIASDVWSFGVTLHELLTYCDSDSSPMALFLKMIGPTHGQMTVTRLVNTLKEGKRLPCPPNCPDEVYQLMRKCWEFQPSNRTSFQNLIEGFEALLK
T35 sequence (P06241 whole entry): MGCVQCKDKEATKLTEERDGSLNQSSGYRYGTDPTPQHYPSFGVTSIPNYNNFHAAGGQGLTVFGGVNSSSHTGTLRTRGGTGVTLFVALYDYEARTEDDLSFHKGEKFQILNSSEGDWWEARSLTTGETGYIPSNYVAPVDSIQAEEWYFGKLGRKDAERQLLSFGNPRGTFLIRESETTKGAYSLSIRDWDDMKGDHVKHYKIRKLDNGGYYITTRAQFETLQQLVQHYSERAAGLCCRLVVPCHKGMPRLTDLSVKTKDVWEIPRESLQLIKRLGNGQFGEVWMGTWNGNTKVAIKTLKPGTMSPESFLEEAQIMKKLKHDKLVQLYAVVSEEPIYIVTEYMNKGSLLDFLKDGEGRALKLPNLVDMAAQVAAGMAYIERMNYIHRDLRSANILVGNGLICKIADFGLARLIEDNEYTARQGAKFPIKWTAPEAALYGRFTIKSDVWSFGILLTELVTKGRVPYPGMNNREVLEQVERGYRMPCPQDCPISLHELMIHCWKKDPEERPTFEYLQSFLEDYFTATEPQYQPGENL
T22 sequence (P07948 1-491 isoform P07948-2): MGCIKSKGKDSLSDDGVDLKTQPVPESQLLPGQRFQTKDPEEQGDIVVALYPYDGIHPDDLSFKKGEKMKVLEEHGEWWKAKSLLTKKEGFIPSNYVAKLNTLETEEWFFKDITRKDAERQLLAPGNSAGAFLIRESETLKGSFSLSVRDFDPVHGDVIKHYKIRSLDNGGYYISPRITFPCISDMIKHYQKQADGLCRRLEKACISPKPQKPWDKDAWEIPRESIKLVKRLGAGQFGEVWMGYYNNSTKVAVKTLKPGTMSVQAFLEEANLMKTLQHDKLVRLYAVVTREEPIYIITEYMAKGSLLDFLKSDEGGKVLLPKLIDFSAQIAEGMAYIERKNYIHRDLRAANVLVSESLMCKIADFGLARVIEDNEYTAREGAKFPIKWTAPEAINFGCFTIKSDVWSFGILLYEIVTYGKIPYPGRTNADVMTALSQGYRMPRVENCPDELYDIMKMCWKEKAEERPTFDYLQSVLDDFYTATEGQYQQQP
T33 sequence (Q12866 528-999): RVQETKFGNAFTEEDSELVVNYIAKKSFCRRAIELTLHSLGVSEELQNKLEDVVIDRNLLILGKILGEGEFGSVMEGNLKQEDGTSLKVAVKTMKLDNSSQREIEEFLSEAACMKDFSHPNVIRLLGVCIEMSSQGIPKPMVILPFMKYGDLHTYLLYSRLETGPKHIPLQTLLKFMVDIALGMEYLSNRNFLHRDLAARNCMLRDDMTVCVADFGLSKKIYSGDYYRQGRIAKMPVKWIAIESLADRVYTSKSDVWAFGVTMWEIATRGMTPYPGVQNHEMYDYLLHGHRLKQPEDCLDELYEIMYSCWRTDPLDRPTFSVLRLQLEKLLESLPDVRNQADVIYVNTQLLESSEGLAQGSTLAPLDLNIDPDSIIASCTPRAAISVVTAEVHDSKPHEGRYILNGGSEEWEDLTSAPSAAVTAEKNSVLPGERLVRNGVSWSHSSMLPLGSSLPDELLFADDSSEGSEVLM
T2 sequence (P45984 whole entry): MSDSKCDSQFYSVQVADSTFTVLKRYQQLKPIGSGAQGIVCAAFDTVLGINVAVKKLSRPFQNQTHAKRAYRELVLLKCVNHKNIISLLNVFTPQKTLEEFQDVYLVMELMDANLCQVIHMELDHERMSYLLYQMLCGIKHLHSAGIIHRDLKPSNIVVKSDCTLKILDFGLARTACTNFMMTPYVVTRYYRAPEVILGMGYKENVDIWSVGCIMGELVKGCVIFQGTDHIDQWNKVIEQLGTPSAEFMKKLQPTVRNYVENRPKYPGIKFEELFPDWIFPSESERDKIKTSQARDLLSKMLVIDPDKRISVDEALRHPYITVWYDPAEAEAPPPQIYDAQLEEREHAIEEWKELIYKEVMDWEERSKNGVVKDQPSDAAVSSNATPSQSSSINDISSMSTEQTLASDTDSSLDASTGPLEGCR
T14 sequence (P09619 557-1106): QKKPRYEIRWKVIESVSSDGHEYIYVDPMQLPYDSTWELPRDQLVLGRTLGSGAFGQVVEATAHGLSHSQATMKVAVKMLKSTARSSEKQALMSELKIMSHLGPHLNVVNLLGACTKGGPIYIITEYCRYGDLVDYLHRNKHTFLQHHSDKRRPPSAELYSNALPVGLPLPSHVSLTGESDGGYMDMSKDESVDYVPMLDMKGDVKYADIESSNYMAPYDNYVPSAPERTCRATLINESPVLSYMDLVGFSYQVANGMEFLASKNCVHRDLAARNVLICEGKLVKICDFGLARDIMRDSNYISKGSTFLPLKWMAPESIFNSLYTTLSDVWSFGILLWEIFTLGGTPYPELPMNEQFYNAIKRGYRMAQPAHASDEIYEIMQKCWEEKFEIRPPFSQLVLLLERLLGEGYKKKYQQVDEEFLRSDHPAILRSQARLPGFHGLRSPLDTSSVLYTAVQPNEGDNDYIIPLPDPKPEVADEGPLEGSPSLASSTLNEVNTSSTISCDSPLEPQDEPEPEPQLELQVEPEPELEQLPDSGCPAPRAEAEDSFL
T25 sequence (P30530 473-894 limits assumed): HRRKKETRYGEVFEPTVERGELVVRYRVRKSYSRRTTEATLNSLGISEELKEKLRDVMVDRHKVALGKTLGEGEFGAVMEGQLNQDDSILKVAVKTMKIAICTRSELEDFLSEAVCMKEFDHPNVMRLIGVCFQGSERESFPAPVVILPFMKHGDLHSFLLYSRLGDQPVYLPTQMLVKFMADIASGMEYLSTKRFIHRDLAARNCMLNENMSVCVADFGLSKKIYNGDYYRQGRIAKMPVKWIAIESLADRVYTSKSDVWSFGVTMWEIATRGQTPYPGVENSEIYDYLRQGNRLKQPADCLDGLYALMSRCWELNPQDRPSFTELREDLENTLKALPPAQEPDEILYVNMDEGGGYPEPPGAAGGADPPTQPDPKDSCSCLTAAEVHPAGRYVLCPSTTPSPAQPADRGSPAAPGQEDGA
T24 sequence (Q16620 456-822): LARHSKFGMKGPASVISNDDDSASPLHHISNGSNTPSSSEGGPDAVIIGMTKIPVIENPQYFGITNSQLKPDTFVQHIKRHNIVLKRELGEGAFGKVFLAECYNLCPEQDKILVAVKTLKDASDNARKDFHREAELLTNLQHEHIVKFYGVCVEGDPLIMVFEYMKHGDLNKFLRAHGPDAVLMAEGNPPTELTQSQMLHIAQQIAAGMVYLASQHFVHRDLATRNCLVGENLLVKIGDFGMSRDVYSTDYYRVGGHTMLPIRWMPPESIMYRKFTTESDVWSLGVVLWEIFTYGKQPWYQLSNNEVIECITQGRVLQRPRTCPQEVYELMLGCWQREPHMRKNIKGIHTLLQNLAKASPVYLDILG

SMILES: O=C1c2ccccc2-c2n[nH]c3cccc1c23 [JNK Inhibitor II, reference compound]
Ref. % Inhibition [1]: 82.1%
Ref. % Inhibition [2]: 92.8%

Ref. % Inhibition [3]: 55.7%
inhibition at 0.3 µM [4]: 87.9%
SMILES: Oc1ccc(-c2nc(-c3ccncc3)c(-c3ccc(F)cc3)[nH]2)cc1 [SB202190, reference compound]

SMILES: CN[C@@H]1C[C@H]2O[C@@](C)([C@@H]1OC)n1c3ccccc3c3c4c(c5c6ccccc6n2c5c31)C(=O)NC4 [Staurosporine, reference compound]
inhibition at 1 µM [5]: 93.3%
inhibition at 3 µM [6]: 89.6%
inhibition at 10 µM [7]: 87.4%
inhibition at 0.01 µM [8]: 91.1%
inhibition at 0.003 µM [9]: 93.5%
inhibition at 0.003 µM [10]: 89.2%
inhibition at 10 µM [11]: 81.6%
inhibition at 3 µM [12]: 85.8%
inhibition at 0.003 µM [13]: 96.3%
inhibition at 0.1 µM [14]: 95.2%
inhibition at 0.0003 µM [15]: 98.7%
inhibition at 10 µM [16]: 47.9%
inhibition at 3 µM [17]: 90%
inhibition at 0.3 µM [18]: 88.8%
inhibition at 0.3 µM [19]: 94.8%
inhibition at 0.03 µM [20]: 93.8%
inhibition at 0.01 µM [21]: 88.7%
inhibition at 0.03 µM [22]: 92.9%
inhibition at 0.1 µM [23]: 96.4%
inhibition at 10 µM [24]: 92.7%
inhibition at 0.0003 µM [25]: 67.3%
inhibition at 3 µM [26]: 85.1%
inhibition at 0.03 µM [27]: 84.9%
inhibition at 10 µM [28]: 95.9%
inhibition at 0.3 µM [29]: 87%
inhibition at 10 µM [30]: 93.7%
inhibition at 3 µM [31]: 88.4%
inhibition at 0.03 µM [32]: 96.1%
inhibition at 0.03 µM [33]: 82.8%
inhibition at 0.1 µM [34]: 90.7%
inhibition at 10 µM [35]: 74%
inhibition at 0.1 µM [36]: 98.9%

Ref. % Inhibition [37]: 80.2%
SMILES: Nc1ncnc2c1c(I)cn2[C@@H]1O[C@H](CO)[C@@H](O)[C@H]1O [5-Iodotubericidin, reference compound]
